Reference: patent publication US20120136033A1, “Small Molecule Antagonists of Phosphatidylinositol-3,4,5-Triphosphate (PIP3) and Uses Thereof” (President and Fellows of Harvard College, priority 2009, published 2012)

Columns and labels:
[1] = solubility / precipitation; format: physicochemical
Source text: This method has been reported to be efficient for in vivo targeting of cancer cells by other poorly soluble anti-cancer drugs, such as m-porphyrin, tamoxifen, and taxol. Gao Z et al. (2003) J Drug Target 11:87-92; Torchilin V P et al. (2003) Proc Natl Acad Sci USA 100:6039-44.
The size of the DM-PIT-1-loaded micelles was about 15 nm with a narrow size distribution.

[2] = tested on: multiple cancer cell lines; assay: cancer cell viability (MTS or ATP assay), multiple cancer cell lines; format: cell-based; settings: for viability of multiple cancer cell lines: B16, Jurkat, Lewis lung carcinoma, A549, 4T1, SUM-159, MDA-MB-231, MTS or ATP assay
Protocol: Different cancer cell lines U87MG, SUM 159, A549, and MDA-MB-231 were incubated with the indicated concentrations of PIT-1 (12.5-100 μM) for 48 hr. Cell viability was determined using ATP assay.
Based on the critical role of PIP3-dependent Akt signaling in the regulation of cell survival, the effect of PIT-1 on the cancer cell viability was tested. Cancer cells were seeded into 96-well plates (white plates for ATP assay; black plates for fluorescent assay; clear plates for MTS assay) at the density of 5-10×10^3 cells per well in 100 μl of the appropriate media. Compounds were added at a series of concentrations and incubated for different times. For the ATP assay, a luminescence-based commercial kit (CellTiter-Glo, Promega, Madison, Wis.) was used. Thirty microliters of cell lysis/ATP detection reagent was added to each well, mixed for 10 min at room temperature, and the luminescence was measured using a Wallac Victor 3 plate reader (Perkin-Elmer, Wellesley, Mass.). For the MTS assay, a CellTiter 96 AQueous Non-Radioactive Cell Proliferation Assay Kit (Promega, Madison, Wis., USA) was used. Twenty microliters of the combined MTS/PMS solution was added into each well, incubated for 4 hr at 37° C., and the absorbance at 490 nm was measured using a Wallac Victor 3 plate reader. For the Sytox cell death assay, measuring loss of plasma membrane integrity, cells were incubated with 1 μM Sytox Green reagent (Molecular Probes, Eugene, Oreg.) for 30 min at 37° C. and the fluorescence intensity was measured using Wallac Victor 3 plate reader with excitation at 485 nm and emission at 545 nm. Next, 5 μl of 20% (v/v) Triton X-100 solution was added to each well and incubated for 1 hr at 37° C., and the signal was measured again. The ratio of values (percentage of dead cells in each well) before and after Triton X-100 treatment was calculated and normalized to the relevant controls not subjected to the cytotoxic stimuli. IC50 values were determined using Origin6 software (MicroCal, LLC, Northampton, Mass.).

Akt PH domain = target: T1, Akt PH domain (Homo sapiens, UniProt P31749); assay: PH domain translocation assay, GFP-fused Akt PH domain; format: cell-based; settings: 100 μM, 2 hr, PDGF stimulation
T1 construct: Akt PH domain-GFP, VAV2-GFP and VAV3-GFP vectors were generous gifts of Dr. Joanne Brugge; expressed in transfected cells
T1 sequence (P31749 5-108 limits assumed): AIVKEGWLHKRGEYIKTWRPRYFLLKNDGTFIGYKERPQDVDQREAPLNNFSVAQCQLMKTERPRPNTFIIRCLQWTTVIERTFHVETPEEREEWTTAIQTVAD
Protocol: Cells were transfected with the corresponding GFP-fusion vectors, serum starved overnight, and incubated with 100 μM PITs or PIT-1is for 2 hr, followed by stimulation with 100 ng/ml PDGF or 250 ng/ml PMA for 5 min. The translocation was analyzed using fluorescent microscope and was quantitated by counting the number of cells with translocated PH domains in five random fields.
(§1) To begin characterizing cellular activity of PITs, a PH domain translocation assay was performed, measuring PIP3-induced association of GFP-fused PH domains with the plasma membrane. This method provides useful means for monitoring status of the PH domain/PIP3 binding in the intact cells. Varnai P et al. (1999) J Biol Chem 274:10983-9. Several PH-domain-containing proteins, which are known to bind PIP3 specifically and efficiently, were examined. […] Oikawa T et al. (2004) Nat Cell Biol 6:420-6.

[3] = tested on: Bax/Bak double knockout mouse embryonic fibroblasts; assay: cell killing in Bax/Bak double knockout vs wild-type cells; format: cell-based
Protocol: Bax/Bak double knockout mouse embryonic fibroblasts (Wei M C et al. (2001) Science 292:727-30) and matched wild-type cells were a generous gift of Dr. Stanley Korsmeyer (Dana-Farber Cancer Center). B16-F10, U87MG, 4T1, A549, MDA-MB-231 and fibroblast cells were cultured in DMEM medium with 10% fetal bovine serum (FBS). SUM159 was maintained in Ham's F-12 medium with 5% FBS, 5 μg/ml insulin, and 1 μg/ml hydrocortisone. HUVEC cells were cultured in M199 medium with 20% FBS, 20 μg/ml ECGS, and 50 μg/ml heparin. All media were supplemented with 100 units/ml penicillin, 100 μg/ml streptomycin, and 2 mM glutamine. All cells were cultured in a humidified atmosphere of 95% air and 5% CO2 at 37° C.

human cancer cells = assay: transwell (Boyden chamber) migration of cancer cells; format: cell-based; settings: for inhibition of cancer cell migration: transwell / wound healing models
Protocol: Two models of cell migration were used, a transwell migration model and a wound closure model. Migration of cancer and endothelial cells was evaluated using 24-transwell Boyden chamber (Costar, Bedford, Mass.) with a polystyrene membrane (6.5 mm diameter, 10 μm thickness, and 8 μm pore size). Cells were suspended in serum-free media and seeded in the upper compartment of each well (2×10^4 cells/well) in the presence or absence of different compounds at the indicated concentrations. The lower compartment contained 600 μl of serum-free culture media supplemented with growth factors. After an 8-hr incubation at 37° C., cells were fixed and stained with 0.1% crystal violet. Non-migrating cells on the upper surface of the filter were removed, and the stained cells that migrated to the lower side were photographed using a phase-contrast microscope (Nikon, Japan) in five random fields. The cells were lysed with 10% acetic acid, and colorimetric determination was made at 595 nm using Wallac Victor 3 plate reader.

[4] = target: T2, Akt PH domain (PH123, 1-123 a.a. N-terminal fragment of human Akt1) (Homo sapiens, UniProt P31749); assay: fluorescence polarization (FP) PIP3/Akt PH domain binding assay; settings: 15 nM TMR-PIP3, 5 μM GST-PH domain of Akt, 30 min, read-out: IC50, disruption of PIP3/Akt PH domain binding
T2 construct: recombinant GST fusion proteins containing 1-123 a.a; N-terminal fragment of human Akt1 (PH 123); made in house; host or cells: E. coli BL21(DE3)
T2 sequence (P31749 1-123): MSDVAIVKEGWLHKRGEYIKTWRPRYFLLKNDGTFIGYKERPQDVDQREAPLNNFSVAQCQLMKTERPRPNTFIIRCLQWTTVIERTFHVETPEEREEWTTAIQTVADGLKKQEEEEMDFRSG
Protocol: 15 nM TMR-conjugated PIP3 were incubated with 5 μM GST-PH domain of Akt in the presence or absence of the indicated concentrations of PITs (0-200 μM) for 30 min, followed by FP measurement.
In order to identify compounds that disrupt the interaction between PIP3 and PH domains, a high-throughput fluorescence polarization (FP)-binding assay was developed using recombinant 1-123 amino acid N-terminal fragment of human Akt1 (also referred to herein simply as Akt), encompassing the PH domain (PH123 protein), and fluorescent NBD-labeled PIP3 molecule. […] Briefly, 5 μM recombinant GST fusion proteins containing 1-123 a.a. N-terminal fragment of human Akt1 (PH 123) or 100 nM 441-551 a.a. region of human PDK1 were incubated with 15 nM TMR-labeled PIP3, PIP2, or PIP5 in buffer containing 50 mM Tris-HCl (pH 7.5), 150 mM NaCl, and 5 mM b-ME for 15 min at room temperature in the dark. FP values were determined using Wallac Victor 3 plate reader. […] Incubations were carried out for 1 hr. For secondary assays, PIT compounds were added at various concentrations (6.25, 12.5, 25, 50, 100, 150 and 200 μM), followed by a 30 min incubation. The inhibition rates were calculated as: inhibition rate=[1−(compound-treated group/control group)]×100%, and IC50 value was determined using Origin6 software (MicroCal, LLC, Northampton, Mass.).

U87MG cells = assay: cell death with pan-caspase inhibitor zVAD.fmk, Sytox assay; format: cell-based, human; settings: 100 μM zVAD.fmk, 24 hr
Protocol: FIG. 11 is a bar graph depicting that cell death triggered by PIT-1 alone or in combination with TRAIL is inhibited by pan-caspase inhibitor zVAD.fmk. U87MG cells were incubated with or without 100 μM zVAD.fmk together with PIT-1 (25, 50, 100 μM) in the presence or absence of 10 ng/ml TRAIL for 24 hr, and analyzed by Sytox cell death assay.
Based on the critical role of PIP3-dependent Akt signaling in the regulation of cell survival, the effect of PIT-1 on the cancer cell viability was tested. […] For the ATP assay, a luminescence-based commercial kit (CellTiter-Glo, Promega, Madison, Wis.) was used. Thirty microliters of cell lysis/ATP detection reagent was added to each well, mixed for 10 min at room temperature, and the luminescence was measured using a Wallac Victor 3 plate reader (Perkin-Elmer, Wellesley, Mass.). […] Twenty microliters of the combined MTS/PMS solution was added into each well, incubated for 4 hr at 37° C., and the absorbance at 490 nm was measured using a Wallac Victor 3 plate reader. For the Sytox cell death assay, measuring loss of plasma membrane integrity, cells were incubated with 1 μM Sytox Green reagent (Molecular Probes, Eugene, Oreg.) for 30 min at 37° C. and the fluorescence intensity was measured using Wallac Victor 3 plate reader with excitation at 485 nm and emission at 545 nm. […]

VAV2 = target: T3, VAV2 (Homo sapiens, UniProt P52735); assay: plasma membrane translocation assay, VAV2-GFP; format: cell-based; settings: PDGF stimulation
T3 construct: expressed in transfected cells; host or cells: SUM159
T3 sequence (P52735 whole entry, species assumed): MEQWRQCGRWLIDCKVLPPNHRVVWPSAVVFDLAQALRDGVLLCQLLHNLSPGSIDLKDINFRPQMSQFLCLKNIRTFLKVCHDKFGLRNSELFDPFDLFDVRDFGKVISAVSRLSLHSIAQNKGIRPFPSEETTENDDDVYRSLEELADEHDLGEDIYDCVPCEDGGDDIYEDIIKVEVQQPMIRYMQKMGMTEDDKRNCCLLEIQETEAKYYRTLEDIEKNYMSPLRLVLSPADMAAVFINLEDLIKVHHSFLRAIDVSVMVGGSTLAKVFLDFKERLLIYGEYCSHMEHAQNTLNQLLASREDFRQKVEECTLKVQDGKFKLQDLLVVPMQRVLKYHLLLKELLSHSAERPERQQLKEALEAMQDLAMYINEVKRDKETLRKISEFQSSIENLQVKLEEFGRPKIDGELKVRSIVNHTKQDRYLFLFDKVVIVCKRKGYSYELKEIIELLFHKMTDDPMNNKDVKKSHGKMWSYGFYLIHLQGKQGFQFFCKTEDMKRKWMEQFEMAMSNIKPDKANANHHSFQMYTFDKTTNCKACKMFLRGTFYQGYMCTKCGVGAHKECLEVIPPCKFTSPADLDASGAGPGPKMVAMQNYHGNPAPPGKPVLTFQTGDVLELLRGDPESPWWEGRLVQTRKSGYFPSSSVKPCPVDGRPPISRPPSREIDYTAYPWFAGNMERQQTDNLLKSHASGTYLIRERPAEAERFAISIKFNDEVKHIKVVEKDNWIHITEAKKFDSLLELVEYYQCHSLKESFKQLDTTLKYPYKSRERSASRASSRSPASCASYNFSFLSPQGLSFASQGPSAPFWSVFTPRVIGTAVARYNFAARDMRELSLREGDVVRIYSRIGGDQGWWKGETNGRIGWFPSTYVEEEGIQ
Protocol: as §1

SUM159 cells = assay: actin polymerization and ruffling/lamellipodia formation in SUM159 cells; format: cell-based, human; settings: 25, 50, 100 μM PITs or 100 μM PIT-1is, 8 hr; PDGF 15 min
Protocol: In one set of experiments, the ability of PITs to inhibit actin polymerization and ruffling/lamellipodia formation was examined in SUM159 cells. Cells were serum starved and treated with PITs (25, 50 100 μM) or PIT-1is (100 μM) for 8 hr, followed by PDGF (100 ng/ml) stimulation for 15 min. Cells were fixed and stained with TRITC-phalloidin to visualize actin fibers, followed by fluorescent microscopy analysis. The number of cells with ruffles/lamellipodia was counted in five random fields.

SMILES	aqueous solubility [1]	viability of U87MG, SUM 159, A549 and MDA-MB-231 cells ([2]; 12.5-100 μM, 48 hr, ATP assay)	viability of multiple cancer cell lines [2]	inhibition of translocation of Akt PH domain to the plasma membrane (Akt PH domain)	killing of Bax/Bak double knockout cells compared with wild-type cells [3]	growth factor-induced transwell migration of human cancer cells (human cancer cells; 8 hr)	inhibition of cancer cell migration (human cancer cells)	IC50 [4] [µM]	cell death alone or with TRAIL in presence of zVAD.fmk (U87MG cells)	inhibition of translocation of VAV2 to the plasma membrane (VAV2)	PDGF-induced membrane ruffling in SUM159 cells (SUM159 cells)
O=C(NC(=S)Nc1cc([N+](=O)[O-])cc(Cl)c1O)c1ccccc1 [PIT-1]	limited aqueous solubility	reduces viability	reduced viability	significantly inhibited	reduced in Bax/Bak double knockout cells	substantially inhibited	much stronger than that of Akt kinase inhibitor VIII	28.1	inhibited by a pan-caspase inhibitor zVAD.fmk	significantly inhibited	efficiently inhibited
O=C1NC(=S)S/C1=C\c1cc(O)c([N+](=O)[O-])cc1Cc1ccccc1 [PIT-2]	limited aqueous solubility		reduced viability	significantly inhibited	reduced in Bax/Bak double knockout cells		efficiently inhibited cell migration	31.5	inhibited by a pan-caspase inhibitor zVAD.fmk	significantly inhibited	efficiently inhibited
